The target in one series is T1, cruzain (Trypanosoma cruzi, UniProt P25779).
T1 construct: made in house
Kind of series: Cruzain protease inhibition assay (Z-Phe-Arg-AMC). It counts as biochemical. The method, then:
(§1) Recombinant cruzain, rhodesain, TbCatB, falcipain-2 and falcipain-3 were expressed as described previously, [39], [40], [41], [42]. Inhibitor stock solutions were prepared in DMSO and screened at 0.1 µM for cruzain and rhodesain, 1 µM for TbCatB and 50 nM for falcipain-3 (0.5% DMSO in assay). […] Protease inhibition assays for cruzain and rhodesain were carried out in 96 well plate format as described previously. Cruzain (4 nM), rhodesain (4 nM) or TbCatB (258 nM) was incubated with test compound in 100 mM sodium acetate, pH 5.5, containing 5 mM DTT and 0.01% Triton X-100 (buffer A), for 5 min at room temperature (the higher concentration of TbCatB was required due to its lower intrinsic activity against the fluorogenic substrate). Then buffer A containing Z-Phe-Arg-AMC (Bachem) was added to enzyme-compound mixture to give 10 µM substrate in a final assay volume of 200 µL. The rate of free AMC release was measured at excitation and emission wavelengths of 355 and 460 nm, respectively, with a microtiter plate spectrofluorimeter (SpectraMax M5, Molecular Devices) for 3 min. Percentage inhibition of test compound was calculated relative to the DMSO control (0% inhibition control). IC50 values were determined with Prism 4 software (GraphPad, San Diego, CA) using sigmoidal dose-response variable slope model.

Series [1] in a line: Jurkat cell cytotoxicity assay. The series is classed as cell-based. As to conditions: human, Jurkat cells (clone E6-1), read-out: Cytotoxicity (% inhibition at 10 µM) Jurkat cells. As to the method: Jurkat cells (clone E6-1) were grown in complete RPMI-1640 medium containing 10% FBS, 50 U/mL penicillin and 50 µg/mL streptomycin (Invitrogen) at 37°C under a humidified atmosphere and 5% CO2. For cytotoxicity testing, cells were diluted to 1×10^5 per ml in complete RPMI-1640 medium. Test compound stocks were prepared in 100% DMSO and screened at 10 µM against cells (1×10^4 cells per well) in sterile Greiner 96-well flat white opaque culture plates (0.5% final DMSO concentration). The 0% inhibition control wells contained 0.5% DMSO while 100% inhibition control wells contained 40 µM staurosporine. After compound addition, plates were incubated for 40 hr at 37°C. At the end of the incubation period, 50 µL of CellTiter-Glo™ reagent (Promega Inc., Madison, WI, USA) was added to each well and plates were placed on an orbital shaker at room temperature for 2 min to induce lysis. After a further 10 min incubation without shaking to stabilize the signal, the ATP-bioluminescence of each well was determined using an Analyst HT plate reader (Molecular Devices, Sunnyvale, CA, USA). Calculations of percentage inhibition and IC50 were performed similar to those in the T. brucei brucei assay.

The subject of series [2] is T. brucei brucei clone 427-221a bloodstream forms. Kind of series: T. brucei brucei growth inhibition assay. It counts as cell-based. As to conditions: Trypanosoma brucei; 40 hours. As to the method: The growth inhibition assay for T. brucei brucei was conducted as described previously. Bloodstream forms of the monomorphic T. brucei brucei clone 427-221a were grown in complete HMI-9 medium containing 10% FBS, 10% Serum Plus medium (Sigma Inc. St. Louis Mo. USA), 50 U/mL penicillin and 50 µg/mL streptomycin (Invitrogen) at 37°C under a humidified atmosphere and 5% CO2. […] 5 µL of each dilution was added to 95 µL of diluted parasites (1×10^4 cells per well) in sterile Greiner 96-well flat white opaque culture plates such that the final DMSO concentration was 0.5%. The 0% inhibition control wells contained 0.5% DMSO while 100% inhibition control wells contained 50 µM thimerosal (Sigma). After compound addition, plates were incubated for 40 hours at 37°C. At the end of the incubation period, 50 µL of CellTiter-Glo™ reagent (Promega Inc., Madison, WI, USA) was added to each well and plates were placed on an orbital shaker at room temperature for 2 min to induce lysis. After an additional 10 min incubation without shaking to stabilize the signal, the ATP-bioluminescence of each well was determined using an Analyst HT plate reader (Molecular Devices, Sunnyvale, CA, USA). Raw values were converted to log10 and percentage inhibition calculated relative to the controls. IC50 curve fittings were performed with Prism 4 software as above.

The target in a further series is T2, falcipain-2 (Plasmodium falciparum, UniProt Q8I6U4).
T2 construct: made in house
T2 sequence (Q8I6U4 244-484): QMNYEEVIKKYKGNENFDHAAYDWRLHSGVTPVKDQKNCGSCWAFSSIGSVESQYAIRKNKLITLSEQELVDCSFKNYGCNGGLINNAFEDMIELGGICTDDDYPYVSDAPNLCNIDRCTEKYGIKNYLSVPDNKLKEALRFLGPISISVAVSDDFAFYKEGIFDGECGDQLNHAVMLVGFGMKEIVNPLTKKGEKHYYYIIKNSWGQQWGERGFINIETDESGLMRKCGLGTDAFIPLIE
Kind of series: Falcipain-2 protease inhibition assay (Z-Leu-Arg-AMC). It counts as biochemical. The method, then: as §1
(§2) Protease inhibition assays for falcipain-2 and falcipain-3 were carried out in 96 well plate format as described previously, [43] with modification for end-point readout. Falcipain-2 (21 nM) or falcipain-3 (78 nM) was incubated with test compound for 10 min at room temperature in 200 mM sodium acetate, pH 6, 10 mM DTT and 3.6% glycerol and 0.01% Triton X-100 (buffer B). Then buffer B containing Z-Leu-Arg-AMC (Bachem) was added to the enzyme-compound mixture to give 25 µM substrate in a final assay volume of 200 µL. After 15 min, 50 µL of 5 M acetic acid was added to each well to stop the reaction. End-point fluorescence was read in a spectrofluorimeter as above. The 0% inhibition control wells contained DMSO while 100% inhibition control wells contained 50 µM E-64 (Sigma). Percentage inhibition of test compound was calculated relative to the controls and IC50 curve fitting was performed with Prism 4 software as above.

The target in another series is human cathepsin B. The arrangement: method as in data provided by Celera Genomics. As to conditions: historical data; ref data provided by Celera Genomics; read-out: Ki catB; cited from earlier work.
For the next series, the target named is T3, falcipain-3 (Plasmodium falciparum, UniProt Q8IIL0).
T3 construct: made in house
T3 sequence (Q8IIL0 243-492): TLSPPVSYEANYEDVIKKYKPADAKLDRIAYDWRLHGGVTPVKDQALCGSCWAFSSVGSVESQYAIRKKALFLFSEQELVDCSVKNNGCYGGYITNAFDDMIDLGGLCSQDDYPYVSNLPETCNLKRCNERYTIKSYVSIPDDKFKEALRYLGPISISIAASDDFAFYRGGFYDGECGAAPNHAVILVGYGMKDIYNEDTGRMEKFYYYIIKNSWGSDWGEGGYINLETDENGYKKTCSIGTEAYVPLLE
Kind of series: Falcipain-3 protease inhibition assay (Z-Leu-Arg-AMC). It counts as biochemical. Particulars: read-out: IC50 falcipain-3. As to the method:
as §1, §2

The target in a further series is human cathepsin L. The arrangement: method as in data provided by Celera Genomics. As to conditions: historical data; ref data provided by Celera Genomics; read-out: Ki catL; cited from earlier work.

T1 sequence (P25779 123-467): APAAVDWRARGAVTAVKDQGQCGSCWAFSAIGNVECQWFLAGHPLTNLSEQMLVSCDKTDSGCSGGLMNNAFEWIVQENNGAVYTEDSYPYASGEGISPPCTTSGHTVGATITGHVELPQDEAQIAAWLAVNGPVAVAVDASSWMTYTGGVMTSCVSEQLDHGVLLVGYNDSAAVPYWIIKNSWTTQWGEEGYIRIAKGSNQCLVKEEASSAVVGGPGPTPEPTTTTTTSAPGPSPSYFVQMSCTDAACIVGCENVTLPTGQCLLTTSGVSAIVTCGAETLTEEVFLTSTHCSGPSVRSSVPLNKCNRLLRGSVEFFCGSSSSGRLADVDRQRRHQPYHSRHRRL

`CCCCC(NC(=O)C(CC(C)C)NC(=O)N1CCOCC1)C(=O)c1nc2ccccc2o1` (centres unmarked) [Compound 19a]: the figures for the half-inhibitory concentration (IC50) on cruzain, against falcipain-2 and on falcipain-3 were 1 nM, 2.1 nM and 8.3 nM, respectively. Moreover, the cytotoxicity at 40 h, 10 µM in series [1] is less than 5%. Also, in series [2], the 50% growth inhibitory concentration (GI50) is greater than 25000 nM. The figures for the inhibitory constant (Ki) at human cathepsin B and on human cathepsin L were 125 nM and 26 nM, respectively.

`CCCCC(NC(=O)C(Cc1ccccc1)NC(=O)N1CCOCC1)C(=O)c1nc2ccccc2o1` (centres unmarked) [Compound 19b]: the IC50 was 4 nM against cruzain, 4.4 nM against falcipain-2 and 4.9 nM at falcipain-3. For the same compound, the cytotoxicity at 40 h, 10 µM in series [1] is less than 5%. In series [2], the GI50 was greater than 25000 nM. Further, the inhibitory constant (Ki) at human cathepsin B is 42 nM; at human cathepsin L, 180 nM.

Broadly, the IC50 is the midpoint of a concentration-inhibition curve. For orientation: GI50 means the concentration at which growth is held to half of that of the control. Low values mean greater sensitivity of the cells, high ones lower sensitivity of the cells. In general, Ki refers to the dissociation constant of the complex between target and ligand, obtained from inhibition or displacement.

The values above are taken from article PMC3086806, “Mining a Cathepsin Inhibitor Library for New Antiparasitic Drug Leads” (PLoS Neglected Tropical Diseases, 2011).
